Source: US6448378B2, “Compound delivery using rapidly dissolving collagen film” (priority 1998, dated 2002)

What was measured:
[1] = test system: human subconjunctival fibroblasts derived from Tenon's membrane; conditions: freshly prepared 0.4 mg/ml solution, dissolved in USP sterile water
Procedure: 6 mm diameter discs were cut from the film and applied to human subconjunctival fibroblasts derived from Tenon's membrane layered in 96 well plates (CSM supplemented with 10% fetal bovine serum). After 72 hours, mitomycin-induced inhibition of cell division was assessed by measuring the reduction in fluorescence intensity (RFU) using a fluorogenic CalceinAM assay (see, for example, Decherchi et al., J. Neurosci. Meth. 71: 205 (1997); Sugita, Pflitgers Arch. 429: 555 (1995); Padanilam et al., Ann. NY Acad. Sci. 720: 111 (1994); Lichtenfels et al., J. Immunol. Meth. 172: 227 (1994); and Wang et al., Human Immunol. 37: 264 (1993)).

[2] = HPLC analysis of mitomycin solution stability; type: physicochemical; conditions: storage at ambient temperature and 4° C. in the dark
Procedure: In contrast to the stability of mitomycin in the collagen film, HPLC analysis of the mitomycin solution determined that stability was maintained for only 4 days following storage at ambient temperature and 4° C. in the dark. Dissolution and storage in 0.9% saline or phosphate buffer (pH 7.4) is not recommended due to degradation and precipitation.

## CO[C@@]12[C@H](COC(N)=O)C3=C(C(=O)C(C)=C(N)C3=O)N1C[C@@H]1N[C@@H]12 [mitomycin solution, mitomycin]
[1]
  % cell death inhibition relative to the values of the mitomycin-collagen films (91%, 90%, 92%): comparable
[2]
  time for which stability of the solution was maintained (HPLC): 4 days
